Experimental data taken from ChEMBL document CHEMBL1153138, “2,4-Diaminopyrimidine MK2 inhibitors. Part II: Structure-based inhibitor optimization” (Bioorg Med Chem Lett, 2010).

What was measured:
Set-up in all cases: dose 3 mg/kg, route intravenous
Conditions in all cases: in vivo
Rattus norvegicus [1] = assay: Half life in Sprague-Dawley rat at 3 mg/kg, iv; assay type: ADME, organism-based
Rattus norvegicus [2] = assay: Terminal Phase volume of distribution at steady state in Sprague-Dawley rat at 3 mg/kg, iv; assay type: ADME, organism-based
Rattus norvegicus [3] = assay: Clearance in Sprague-Dawley rat at 3 mg/kg, iv; assay type: ADME, organism-based
Rattus norvegicus [4] = assay: AUC in Sprague-Dawley rat at 3 mg/kg, iv; assay type: ADME, organism-based, Plasma

A t1/2 (Rattus norvegicus [1]) of 5.5 h, a Vbeta (Rattus norvegicus [2]) of 4 L/kg and a CL (Rattus norvegicus [3]) of 1.7 L/h/kg were found for `NCCCn1cc(-c2cc(-c3cc4ccccc4s3)c3[nH]ncc3c2)c2nc(N)ncc21` in this work. For the same molecule, the AUC (Rattus norvegicus [4]) was 4.2 µg·h/mL.
